Key:
[1] = Thermal gravimetric analysis (resistance to loss of benzotriazole stabilizers); settings: for Time (minutes) to 50% Weight Loss of Stabilizer: isothermal at 280° C.; for Time (minutes) to 50% Weight Loss of Stabilizer / Temperature °C. to 10% Weight Loss of Stabilizer / Temperature °C. to 50% Weight Loss of Stabilizer: 100 ml nitrogen/minute; for Temperature °C. to 10% Weight Loss of Stabilizer / Temperature °C. to 50% Weight Loss of Stabilizer: scanning at 10°(C.) per minute; for resistance to thermogravimetric loss: in words, compared with prior art benzotriazole F
Procedure: A number of 2-aryl-2H-benzotriazole light stabilizers are subjected to thermal gravimetric analysis with a flow rate of 100 ml nitrogen/minute both isothermally at 280° C. to indicate the time in minutes to reach 50% weight loss of the stabilizer as well as in a scanning mode at a heating rate of 10° (C.) per minute to ascertain the temperature at which 10% and 50% weight loss of stabilizer are observed.

[2] = in words, prior art patents; cited from earlier work
[3] = in words, prior art patents; cited from earlier work; remark: listed apart in the source
[4] = Absorbance at 340nm (extinction coefficients); format: physicochemical; settings: for Specific Extinction Coefficient a: equal weight basis
From the text: The compounds of this invention show unanticipated enhancement of absorbance at 340nm as can be seem from a comparison of molar extinction coefficients E compared to state of the art compund F which lacks an aralkyl-substituent in the 5-position. In many cases the enhanced absorbance is also seen when products are compared i.e. in terms of Specific Extinction Coefficients a on an equal weight rather than molar basis.
Molar Extinction Coefficient E = a × molecular weight

[5] = Solubility of crystalline modification forms; format: physicochemical; settings: organic solvents including xylene and methyl amyl ketone
[6] = Stabilizer loss on milling into polycarbonate resin; settings: milling at 400° F. (240° C.), 15 minutes, spectrophotometric
Procedure: Samples of light stabilizers are incorporated into polycarbonate resin by milling at 400° F. ([…]) for a 15 minute period. […] At the end of the milling period the percent stabilizer loss is determined spectrophotometrically.

[7] = Solubility of benzotriazole stabilizers; format: physicochemical; settings: 25° C.
From the text: The benzotriazole stabilizers are classically materials with relatively low solubility in common organic solvents. This is particularly the case where the benzotriazole is substituted in the 2-phenyl ring with aralkyl groups intended to decrease stabilizer volatility during processing and use.

Compound | Time (minutes) to 50% Weight Loss of Stabilizer [1] [min] | Temperature °C. to 10% Weight Loss of Stabilizer [1] [°C] | Temperature °C. to 50% Weight Loss of Stabilizer [1] [°C] | resistance to loss by volatilization [2] | solubility in substrates and processing solvents [3] | Molar Extinction Coefficient E [4] [L/mol/cm] | Specific Extinction Coefficient a [4] [L/g/cm] | resistance to thermogravimetric loss [1] | solubility of crystalline form melting at 114°-116° C. versus the other crystalline form [5] | % loss (by weight) of stabilizer [6] [%] | Solubility in Butyl Cellosolve Acetate [7] | Solubility in Heptane [7] | Solubility in Methyl Amyl Ketone [7] | Solubility in Xylene [7] | compatibility / performance in substrates [3]
Cc1ccc(O)c(-n2nc3ccccc3n2)c1 [Stabilizer A, 2(2-hydroxy-5-methylphenyl)-2H--benzotriazole] | 0.75 | 182 | 215 |  |  |  |  |  |  |  |  |  |  |  | 
CC(C)(C)CC(C)(C)c1cc(-n2nc3ccccc3n2)c(O)c(C(C)(C)CC(C)(C)C)c1 [2-(2-hydroxy-3,5-di-tert-octylphenyl)-2H-benzotriazole] |  |  |  | did not have outstanding resistance to loss by volatilization | enhanced solubility in processing solvents and substrates |  |  |  |  |  |  |  |  |  | 
CC(C)(c1ccccc1)c1cc(-n2nc3ccc(C(C)(C)c4ccccc4)cc3n2)c(O)c(C(C)(C)c2ccccc2)c1 [Example 21, 5-alpha,alpha-Dimethylbenzyl-2-[2-hydroxy-3,5-di (alpha, alpha-dimethylbenzyl)phenyl]-2H-benzotriazole] | 2040 | 365 | 412 |  |  | 19500 | 28 | very much more resistant to thermogravimetric loss | far greater solubility in many organic solvents | < 3 |  |  |  |  | 
CC(C)(c1ccccc1)c1cc(-n2nc3ccccc3n2)c(O)c(C(C)(C)c2ccccc2)c1 [Compound F, 2-[2-hydroxy-3,5-di-(alpha,alpha-dimethylbenzyl)phenyl]-2 H-benzotriazole] | 24 | 300 | 340 | superior resistance to loss from stabilized compositions during high temperature processing | relatively low solubility in some substrates and processing solvents | 15100 | 34 |  |  | < 3 | 14 grams per 100 grams solvent | 1.5 grams per 100 grams solvent | 6 grams per 100 grams solvent | 16 grams per 100 grams solvent | 
CC(C)(c1ccccc1)c1cc(-n2nc3ccc(Cc4ccccc4)cc3n2)c(O)c(C(C)(C)c2ccccc2)c1 [Example 26, 5-Benzyl-2-[2-hydroxy-3,5-di-(alpha,alpha-dimethylbenzyl)phenyl]-2H-benzotriazole] | 3780 | 360 | 405 |  |  | 18500 | 35 | very much more resistant to thermogravimetric loss |  |  |  |  |  |  | 
Cc1cc(C(C)c2ccccc2)c(O)c(-n2nc3ccccc3n2)c1 (stereo not shown) [Stabilizer E, 2-[2-hydroxy-3-(1-phenylethyl)-5-methylphenyl]-2H-benzotriazole] | 3.0 | 250 | 290 | better resistance to loss by volatilization during processing |  |  |  |  |  |  |  |  |  |  | better compatibility
CC(C)(C)CC(C)(C)c1cc(-n2nc3ccc(C(C)(C)c4ccccc4)cc3n2)c(O)c(C(C)(C)CC(C)(C)C)c1 [Example 24, 5-alpha,alpha-Dimethylbenzyl-2-(2-hydroxy-3,5-di-tert-octylphenyl)-2H-benzotriazole] | 40 | 308 | 348 |  |  | 17400 | 31 |  |  |  |  |  |  |  | 
CC(C)(C)c1cc(-n2nc3ccc(C(C)(C)c4ccccc4)cc3n2)c(O)c(C(C)(C)C)c1 [Example 7, 5-alpha,alpha-Dimethylbenzyl-2-(2-hydroxy-3,5-di-tert-butylphenyl)-2H-benzotriazole] | 19 | 295 | 338 |  |  | 19000 | 43 | similar |  | < 3 | 61 grams per 100 grams solvent | 97 grams per 100 grams solvent | 128 grams per 100 grams solvent | 197 grams per 100 grams solvent | 
CC(C)(C)CC(C)(C)c1cc(-n2nc3ccc(C(C)(C)c4ccccc4)cc3n2)c(O)c(C(C)(C)c2ccccc2)c1 [Example 22, 5-alpha,alpha-Dimethylbenzyl-2-(2-hydroxy-3-alpha,alpha-dimethylbenzyl-5-tert-octylphenyl)-2H-benzotriazole] | 840 | 340 | 387 |  |  | 18500 | 33 |  |  |  |  |  |  |  | 
CCC(C)c1cc(-n2nc3ccccc3n2)c(O)c(C(C)(C)C)c1 (stereo not shown) [Stabilizer C, 2(2-hydroxy-3-tert-butyl-5-sec-butylphenyl)-2H--benzotriazole] | 1.0 | 210 | 247 |  |  |  |  |  |  |  |  |  |  |  | 
CC(C)(C)CC(C)(C)c1cc(-n2nc3ccccc3n2)c(O)c(C(C)(C)c2ccccc2)c1 [Compound G, 2-[2-hydroxy-3-(alpha,alpha-dimethylbenzyl)-5-tert-octylphenyl]-2H-benzotriazole] | 7.4 | 267 | 307 |  |  |  |  |  |  |  | 19 grams per 100 grams solvent | 9.7 grams per 100 grams solvent | 33 grams per 100 grams solvent | 82 grams per 100 grams solvent | 
CCC(C)(C)c1cc(-n2nc3ccc(C(C)(C)c4ccccc4)cc3n2)c(O)c(C(C)(C)CC)c1 [Example 23] | 33 | 285 | 325 |  |  | 19100 | 41 |  |  |  | > 100 grams per 100 grams solvent | > 100 grams per 100 grams solvent | > 100 grams per 100 grams solvent | > 100 grams per 100 grams solvent | 
CCC(C)(C)c1cc(-n2nc3ccccc3n2)c(O)c(C(C)(C)CC)c1 [Compound B, 2(2-hydroxy-3,5-di-tert-amylphenyl)-2H--benzotriazole] | 0.9 | 200 | 233 |  |  |  |  |  |  |  | 19 grams per 100 grams solvent | 23 grams per 100 grams solvent | 34 grams per 100 grams solvent | 70 grams per 100 grams solvent | 
CC(C)(C)CC(C)(C)c1ccc(O)c(-n2nc3ccccc3n2)c1 [Stabilizer D, 2-(2-hydroxy-5-tert-octylphenyl)-2H-benzotriazole] | 1.9 | 225 | 260 |  |  |  |  |  |  | 40 |  |  |  |  | superior compatibility and performance in polyethylene

Reference: patent publication US4760148A, “5-aralkyl substituted 2H-benzotriazoles and stabilized compositions” (Ciba-Geigy Corporation, priority 1985, dated 1988)
